Experiment [1] deals with KO-52 cells. The experiment is described as follows: Proliferation assay, spheroid-like growth, KO-52 (MLL wildtype control cell line). In kind it is cell-based, human. The settings on record: KO-52 control cells, 8 days, confluence as measure of spheroid size, read-out: spheroid assay_OneTime KO-52 IC50. The method, boiled down:
(§1)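 Cells seeded in ultra-low attachment round-bottom wells (200 MOLM14 or 300 KO-52 per well) with compound at several concentrations, DMSO 0.3%, grown 8 days at 37° C, 5% CO2. Spheroid size taken as confluence from day-8 live-cell images; IC50 from variable-slope fit, DMSO as 0% and high-dose reference compound as 100% effect.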

Experiment [2] has as its system MOLM14 cells. Kind of experiment: Proliferation assay, spheroid-like growth, MOLM14 (MLL-AF9 rearranged). The settings on record: 8 days, confluence as measure of spheroid size, read-out: spheroid assay_OneTime MOLM14 IC50. The format is cell-based, human. Summed up:
as §1

The target of experiment [3] is T1, menin/MLL (terbium chelate-labeled menin, FITC-MBM1 peptide) (Homo sapiens, UniProt O00255, T541A).
T1 construct: Menin (a.a 1-610-6xhis tag)
T1 sequence (O00255 with tags, fused parts or gaps T541A): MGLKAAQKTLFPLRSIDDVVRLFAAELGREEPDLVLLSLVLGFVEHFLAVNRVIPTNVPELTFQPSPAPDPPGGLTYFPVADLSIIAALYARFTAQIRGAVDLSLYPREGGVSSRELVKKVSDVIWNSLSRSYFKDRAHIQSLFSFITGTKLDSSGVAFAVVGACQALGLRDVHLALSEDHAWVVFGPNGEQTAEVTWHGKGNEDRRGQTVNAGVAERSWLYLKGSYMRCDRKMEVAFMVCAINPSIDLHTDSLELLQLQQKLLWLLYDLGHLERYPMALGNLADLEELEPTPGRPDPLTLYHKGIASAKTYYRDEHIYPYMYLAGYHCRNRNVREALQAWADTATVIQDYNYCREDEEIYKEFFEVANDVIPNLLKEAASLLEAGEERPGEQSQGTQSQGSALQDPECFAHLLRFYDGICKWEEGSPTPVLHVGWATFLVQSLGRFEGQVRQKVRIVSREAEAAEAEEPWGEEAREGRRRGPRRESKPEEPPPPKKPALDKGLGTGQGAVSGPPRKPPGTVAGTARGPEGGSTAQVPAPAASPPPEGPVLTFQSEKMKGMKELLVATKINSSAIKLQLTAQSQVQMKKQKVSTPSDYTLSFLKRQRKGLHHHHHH
The experiment is described as follows: Menin/MLL homogenous time-resolved fluorescence (HTRF) assay. The format is binding. The settings on record: 30 min incubation. The method, boiled down: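 Terbium-labeled menin (aa 1-610, His-tagged; 200 pM) preincubated 30 min with compound, then 75 nM FITC-MBM1 peptide added for 15 min at ambient temperature in pH 7.5 Tris buffer, 0.5% DMSO. HTRF ratio 520/490 nm converted to % inhibition. IC50 came from an 11-point four-fold titration from 10 μM, floor 0.1 nM.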
(In general: Time-resolved FRET reads energy transfer from a long-lived donor to a nearby acceptor.)

Where two headings read alike, the source gives them in different places.

One may read the IC50 as the concentration that inhibits the measured activity by half. Turning to `CC(C)[C@H]([C@H]1C[C@]2(CCC(=O)N2)C1)N1CC2(CCN(c3ncnnc3Oc3ccc(F)cc3-c3cncnc3C3CC3)C2)C1` (single isomer, unassigned) [Compound 313], the IC50 in experiment [1] (Homo sapiens, 192 h) is greater than 15000 nM; in experiment [2] (Homo sapiens, MOLM-14, 192 h) it was greater than 940 nM; in experiment [3], 43.4 nM.

Consider `CC(C)[C@H]([C@H]1C[C@@H](N(C)CCCS(C)(=O)=O)C1)N1CC2(CCN(c3ncnnc3Oc3ccc(F)cc3-c3cncnc3C3CC3)C2)C1` (single isomer, unassigned) [Compound 242], for which the IC50 was found to be 12200 nM in experiment [1] (Homo sapiens, 192 h); 8 nM in experiment [2] (Homo sapiens, MOLM-14, 192 h); 0.1 nM in experiment [3].

As to `CC(C)[C@H]([C@H]1C[C@H](N2CC3(COC3)C2)C1)N1CC2(CCN(c3ncnnc3Oc3ccc(F)cc3-c3ncc(C#N)cc3C3CC3)C2)C1` (single isomer, unassigned) [Compound 95], the IC50 in experiment [1] (Homo sapiens, 192 h) was determined as 11400 nM; in experiment [2] (Homo sapiens, MOLM-14, 192 h), 210 nM; in experiment [3] it was 0.1 nM.

`CC(C)[C@H]([C@H]1C[C@@H](N2CC[C@@H](C(C)(C)O)C2)C1)N1CC2(CCN(c3ncnnc3Oc3ccc(F)cc3-c3cncnc3C3CC3)C2)C1` (single isomer, unassigned) [Compound 70]: the IC50 in experiment [1] (Homo sapiens, 192 h) was 5150 nM; in experiment [2] (Homo sapiens, MOLM-14, 192 h) it was 4 nM; in experiment [3], 0.1 nM.

For `CC(C)[C@H](C1CCN(C[C@H]2C[C@H](O)C2)CC1)N1CC2(CCN(c3ncnnc3Oc3ccc(F)cc3-c3cncnc3C3CC3)C2)C1` (single isomer, unassigned) [Compound 358], the IC50 in experiment [1] (Homo sapiens, 192 h) amounted to 2210 nM; in experiment [2] (Homo sapiens, MOLM-14, 192 h), 23 nM; in experiment [3] it was 0.1 nM.

Consider `CC(C)[C@@H]([C@H]1C[C@@H](N2CC[C@@](C)(O)C2)C1)N1CC2(CCN(c3ncnnc3Oc3ccc(F)cc3-c3cnncc3C3CC3)C2)C1` (single isomer, unassigned) [Compound 114], for which the IC50 in experiment [1] (Homo sapiens, 192 h) is 14200 nM; in experiment [2] (Homo sapiens, MOLM-14, 192 h) it was 8 nM; in experiment [3], 0.1 nM.

Regarding `CC(C)[C@H]([C@H]1C[C@@H](N2CCC3(CC2)COC3)C1)N1CC2(CCN(c3ncnnc3Oc3ccc(F)cc3-c3cncnc3C3CC3)C2)C1` (single isomer, unassigned) [Compound 231], the 50% inhibitory concentration (IC50) is 5520 nM in experiment [1] (Homo sapiens, 192 h); 7 nM in experiment [2] (Homo sapiens, MOLM-14, 192 h); 0.1 nM in experiment [3].

As for `CC(=O)N[C@H]1C[C@@H](C(C(C)C)N2CC3(CCN(c4ncnnc4Oc4ccc(F)cc4-c4nccnc4C4CC4)C3)C2)C1` (stereo partly drawn) [Compound 176], the IC50 in experiment [1] (Homo sapiens, 192 h) was 10400 nM; in experiment [2] (Homo sapiens, MOLM-14, 192 h) it was 80 nM; in experiment [3], 0.5 nM.

Consider `CC(C)[C@H]([C@H]1C[C@@H](N2CCC[C@@H](C(=O)N(C)C)C2)C1)N1CC2(CCN(c3ncnnc3Oc3ccc(F)cc3-c3cncnc3C3CC3)C2)C1` (single isomer, unassigned) [Compound 50], for which the IC50 is greater than 15000 nM in experiment [1] (Homo sapiens, 192 h); less than 2 nM in experiment [2] (Homo sapiens, MOLM-14, 192 h); 0.1 nM in experiment [3].

On to `CC(C)[C@@H]([C@H]1C[C@H](N2CC[C@H](C(=O)N(C)C)C2)C1)N1CC2(CCN(c3ncnnc3Oc3ccc(F)cc3-c3cnncc3C3CC3)C2)C1` (single isomer, unassigned) [Compound 117], for which the IC50 is greater than 15000 nM in experiment [1] (Homo sapiens, 192 h); 170 nM in experiment [2] (Homo sapiens, MOLM-14, 192 h); 0.1 nM in experiment [3].

`CC(C)[C@@H]([C@H]1C[C@H](N2CC[C@](C)(O)C2)C1)N1CC2(CCN(c3ncnnc3Oc3ccc(F)cc3-c3cnncc3C3CC3)C2)C1` (single isomer, unassigned) [Compound 113]: the IC50 is greater than 15000 nM in experiment [1] (Homo sapiens, 192 h); 200 nM in experiment [2] (Homo sapiens, MOLM-14, 192 h); 0.2 nM in experiment [3].

Regarding `CC(C)[C@@H](C1CCN(CC2COC2)CC1)N1CC2(CCN(c3ncnnc3Oc3ccc(F)cc3-c3cncnc3C3CC3)C2)C1` (single isomer, unassigned) [Compound 29], the IC50 in experiment [1] (Homo sapiens, 192 h) is greater than 15000 nM; in experiment [2] (Homo sapiens, MOLM-14, 192 h) it was 220 nM; in experiment [3], 1.8 nM.

As to `CC(=O)N[C@H]1C[C@@H]([C@H](C(C)C)N2CC3(CCN(c4ncnnc4Oc4ccc(F)cc4-c4nccnc4C4CC4)C3)C2)C1` (single isomer, unassigned) [Compound 178], the IC50 in experiment [1] (Homo sapiens, 192 h) is greater than 15000 nM; in experiment [2] (Homo sapiens, MOLM-14, 192 h) it was greater than 940 nM; in experiment [3], 108 nM.

For the compound `CC(C)[C@@H]([C@H]1C[C@H](N2C[C@H]3COC[C@H]3C2)C1)N1CC2(CCN(c3ncnnc3Oc3ccc(F)cc3-c3cnncc3C3CC3)C2)C1` (single isomer, unassigned) [Compound 279], the IC50 came out at 5990 nM in experiment [1] (Homo sapiens, 192 h); 20 nM in experiment [2] (Homo sapiens, MOLM-14, 192 h); 0.1 nM in experiment [3].

Consider `CC(C)C([C@H]1C[C@@H](N2CCC(S(C)(=O)=O)CC2)C1)N1CC2(CCN(c3ncnnc3Oc3ccc(F)cc3-c3cncnc3C3CC3)C2)C1` (stereo partly drawn) [Compound 132], for which the IC50 stood at 8100 nM in experiment [1] (Homo sapiens, 192 h); 76 nM in experiment [2] (Homo sapiens, MOLM-14, 192 h); 0.3 nM in experiment [3].

For `CC(=O)N1CCC2C1CCN2[C@H]1C[C@@H]([C@@H](C(C)C)N2CC3(CCN(c4ncnnc4Oc4ccc(F)cc4-c4cncnc4C4CC4)C3)C2)C1` (single isomer, unassigned) [Compound 55], the IC50 in experiment [1] amounted to 6430 nM; in experiment [2], 95 nM; in experiment [3], 0.5 nM.

`CC(C)[C@@H]([C@H]1C[C@H](N(C)C)C1)N1CC2(CCN(c3ncnnc3Oc3ccc(F)cc3-c3nnccc3C3CC3)C2)C1` (single isomer, unassigned) [Compound 261b]: the IC50 in experiment [1] (Homo sapiens, 192 h) was found to be 3070 nM; in experiment [2] (Homo sapiens, MOLM-14, 192 h) it was 83 nM; in experiment [3] it was 0.3 nM.

Take `CC(C)[C@@H]([C@H]1C[C@H](N2CC3(CCO3)C2)C1)N1CC2(CCN(c3ncnnc3Oc3ccc(F)cc3-c3cnncc3C3CC3)C2)C1` (single isomer, unassigned) [Compound 103]: the IC50 in experiment [1] (Homo sapiens, 192 h) turned out to be 12200 nM; in experiment [2] (Homo sapiens, MOLM-14, 192 h), 100 nM; in experiment [3], 0.1 nM.

As to `CO[C@H]1CCN([C@H]2C[C@@H](C(C(C)C)N3CC4(CCN(c5ncnnc5Oc5ccc(F)cc5-c5nnccc5C5CC5)C4)C3)C2)C1` (single isomer, unassigned) [Compound 331], the IC50 in experiment [1] (Homo sapiens, 192 h) was 2850 nM; in experiment [2] (Homo sapiens, MOLM-14, 192 h) it was 3 nM; in experiment [3] it was 0.2 nM.

On to `CC(C)[C@H]([C@H]1C[C@H](N2CCC2)C1)N1CC2(CCN(c3ncnnc3Oc3ccc(F)cc3-c3cncnc3C3CC3)C2)C1` (single isomer, unassigned) [Compound 345], for which the IC50 in experiment [1] (Homo sapiens, 192 h) was determined as 7400 nM; in experiment [2] (Homo sapiens, MOLM-14, 192 h) it was 55 nM; in experiment [3], 1 nM.

With `CC(=O)N1CCC2CN([C@H]3C[C@@H]([C@@H](C(C)C)N4CC5(CCN(c6ncnnc6Oc6ccc(F)cc6-c6cncnc6C6CC6)C5)C4)C3)CC21` (single isomer, unassigned) [Compound 57], the half-maximal inhibitory concentration (IC50) came to 7540 nM in experiment [1] (Homo sapiens, 192 h); 8 nM in experiment [2]; 0.1 nM in experiment [3].

Consider `CC(C)[C@H]([C@H]1C[C@@H](N2CC3(COC3)C2)C1)N1CC2(CCN(c3ncnnc3Oc3ccc(F)cc3-c3ncccc3C3CC3)C2)C1` (single isomer, unassigned) [Compound 151], for which the IC50 in experiment [1] (Homo sapiens, 192 h) amounted to 2030 nM; in experiment [2] (Homo sapiens, MOLM-14, 192 h) it was 4 nM; in experiment [3], 0.1 nM.

In the case of `CC(C)[C@H]([C@H]1C[C@@H](N(C)CCC(=O)N(C)C)C1)N1CC2(CCN(c3ncnnc3Oc3ccc(F)cc3-c3cncnc3C3CC3)C2)C1` (single isomer, unassigned) [Compound 348], the IC50 in experiment [1] (Homo sapiens, 192 h) was 10200 nM; in experiment [2] (Homo sapiens, MOLM-14, 192 h), 4 nM; in experiment [3], 0.2 nM.

In the case of `CC(C)[C@H]([C@H]1C[C@@H](N2CCC(S(C)(=O)=O)CC2)C1)N1CC2(CCN(c3ncnnc3Oc3ccc(F)cc3-c3cncnc3C3CC3)C2)C1` (single isomer, unassigned) [Compound 9], the IC50 in experiment [1] (Homo sapiens, 192 h) was 7160 nM; in experiment [2] (Homo sapiens, MOLM-14, 192 h), 21 nM; in experiment [3], 0.1 nM.

On to `CC(=O)N1CCN([C@H]2C[C@@H]([C@H](C(C)C)N3CC4(CCN(c5ncnnc5Oc5ccc(F)cc5-c5cnncc5C5CC5)C4)C3)C2)CC1` (single isomer, unassigned) [Compound 104], for which the IC50 in experiment [1] (Homo sapiens, 192 h) turned out to be 11800 nM; in experiment [2] (Homo sapiens, MOLM-14, 192 h) it was 73 nM; in experiment [3], 0.2 nM.

For the origin of these results see patent US20240417405A1, “Substituted Spiro Derivatives” (Janssen Pharmaceutica NV, priority 2021, published 2024).
